Consider 17 compounds from US20250163048A1 (Tango Therapeutics, Inc., priority 2022, published 2025).

Test [1] deals with HAP1 MTAP-intact cell line. As to the kind of experiment: SDMA in-cell western assay, HAP1 MTAP-intact.
In another test the test system is MTAP-deleted cell line. As to the kind of experiment: viability assay for the MTAP-deleted cell line. In kind it is cell-based.
The subject of test [2] is HAP1 MTAP-deleted cell line. In words: SDMA in-cell western assay, HAP1 MTAP-deleted. Conditions: for Hap1 MTAP intact/deleted ratio: IC50 ratio between HAP1 MTAP-intact and HAP1 MTAP-deleted cell line.
Setting [3] is: Homo sapiens, HAP1, read-out: Hap1 MTAP intact IC50, SDMA in-cell western, HAP1 MTAP-intact cell line.
Setting [4] is: Homo sapiens, HAP1, viability assay.
The mark [5] stands for this setting: Homo sapiens, HAP1, read-out: Hap1 MTAP deleted IC50, SDMA in-cell western, HAP1 MTAP-deleted cell line.
Setting [6] is: Homo sapiens, HAP1, read-out: Hap1 MTAP deleted IC90, SDMA in-cell western, HAP1 MTAP-deleted cell line.
Where [7] appears, read: Homo sapiens, HAP1, read-out: Hap1 MTAP intact IC50, SDMA in-cell western assay, HAP1 MTAP-intact cell line.
Where [8] appears, read: Homo sapiens, HAP1, read-out: Hap1 MTAP deleted IC50, SDMA in-cell western assay, HAP1 MTAP-deleted cell line.
The mark [9] stands for this setting: Homo sapiens, HAP1, read-out: Hap1 MTAP deleted IC90, SDMA in-cell western assay, HAP1 MTAP-deleted cell line.

Molecules are shown by their SMILES. Read-outs that look alike come from different tables or passages of the source. A value given as a limit tells only on which side of the number the result lay.

Broadly, the IC50 is the concentration at which inhibition is half-maximal. As a reminder, the IC90 is the concentration at which the effect reaches the 90% level. Consider `C[C@H]1CC[C@H](c2ccc3sc(CCN(C)C)nc3c2)N(C(=O)C(=O)Nc2ccn3ccnc3c2)C1` (single isomer, unassigned) [Compound 16, 2-(2-(2-(2-(dimethylamino)ethyl)benzo[d]thiazol-5-yl)-5-methylpiperidin-1-yl)-N-(imidazo[1,2-a]pyridin-7-yl)-2-oxoacetamide], for which the IC50 is above 50 nM in test [1] (setting [3]), below 100 nM in the test with MTAP-deleted cell line (setting [4]) and below 5 nM in test [2] (setting [5]). In addition, the IC90 in test [2] (setting [6]) is below 75 nM. Besides, the “Hap1 MTAP intact/deleted ratio” value in test [2] (SDMA in-cell western) is listed as “A (“A” indicates an IC50 ratio greater than or equal to 30 fold)”.

As for `CO[C@@H]1C[C@@H](c2ccc(F)cc2)N(C(=O)C(=O)Nc2cnc(N)c3cn[nH]c23)C[C@@H]1C` (single isomer, unassigned) [Compound 7], the values for the IC50 (in test [1] (setting [3]); with MTAP-deleted cell line (setting [4]); in test [2] (setting [5])) were 5 to 50 nM, below 100 nM and below 5 nM, respectively. The concentration for an effect of 90% (IC90) in test [2] (setting [6]) was below 75 nM. Moreover, the “Hap1 MTAP intact/deleted ratio” value in test [2] (SDMA in-cell western) is on record as “B (“B” indicates an IC50 ratio greater than or equal to 15 fold but lower than 30 fold)”.

Turning to `C[C@H]1CC[C@H](c2ccc3sc(C4CC5(C4)CN(C)C5)nc3c2)N(C(=O)C(=O)Nc2cncc3cn[nH]c23)C1` [Compound 93, 2-((2R,5S)-5-methyl-2-(2-(2-methyl-2-azaspiro[3.3]heptan-6-yl)benzo[d]thiazol-5-yl)piperidin-1-yl)-2-oxo-N-(1H-pyrazolo[4,3-c]pyridin-7-yl)acetamide], the figures for the 50% inhibitory concentration (IC50) (in test [1] (setting [3]); in the test on MTAP-deleted cell line (setting [4]); in test [2] (setting [5])) were 5 to 50 nM, below 100 nM and below 5 nM, respectively. The IC90 in test [2] (setting [6]) was below 75 nM. Besides, the “Hap1 MTAP intact/deleted ratio” value in test [2] (SDMA in-cell western) is listed as “C (“C” indicates an IC50 ratio of less than 15 fold)”.

In the case of `C[C@H]1CC[C@H](c2ccc3sc(C4CC(C)(C)N(C)C(C)(C)C4)nc3c2)N(C(=O)C(=O)Nc2ccn3ccnc3c2)C1` [Compound 67, N-(imidazo[1,2-a]pyridin-7-yl)-2-((2R,5S)-5-methyl-2-(2-(1,2,2,6,6-pentamethylpiperidin-4-yl)benzo[d]thiazol-5-yl)piperidin-1-yl)-2-oxoacetamide], the figures for the 50% inhibitory concentration (IC50) (in test [1] (setting [3]); in the test on MTAP-deleted cell line (setting [4]); in test [2] (setting [5])) were 5 to 50 nM, below 100 nM and below 5 nM, respectively. In test [2] (setting [6]), the 90% effect concentration (IC90) was below 75 nM. Also, in test [2] (SDMA in-cell western), the “Hap1 MTAP intact/deleted ratio” value was “B (“B” indicates an IC50 ratio greater than or equal to 15 fold but lower than 30 fold)”.

As to `C[C@H]1CC[C@H](c2cccc(OCCN(C)C)c2)N(C(=O)C(=O)Nc2cnc(N)c3cn[nH]c23)C1` [Compound 166, N-(4-amino-1H-pyrazolo[4,3-c]pyridin-7-yl)-2-((2R,5S)-2-(3-(2-(dimethylamino)ethoxy)phenyl)-5-methylpiperidin-1-yl)-2-oxoacetamide], the IC50 in test [1] (setting [3]) is 5 to 50 nM; with MTAP-deleted cell line (setting [4]), below 100 nM; in test [2] (setting [5]) it was below 5 nM. Moreover, in test [2] (setting [6]), the IC90 was below 75 nM. In addition, the “Hap1 MTAP intact/deleted ratio” value in test [2] (SDMA in-cell western) is “C (“C” indicates an IC50 ratio of less than 15 fold)”.

Turning to `Nc1ncc(NC(=O)C(=O)N2CCCCC2c2cccc(N3CCCC3)c2)c2[nH]ncc12` (single isomer, unassigned) [Compound 271], the IC50 was above 50 nM in test [1] (read-out: Hap1 MTAP intact IC50, SDMA in-cell western assay, HAP1 MTAP-intact cell line); below 100 nM in the test on MTAP-deleted cell line (viability assay, read-out: Hap1 MTAP deleted viability IC50); below 5 nM in test [2] (read-out: Hap1 MTAP deleted IC50, SDMA in-cell western assay, HAP1 MTAP-deleted cell line). The “Hap1 MTAP intact/deleted ratio” value in test [2] (SDMA in-cell western assay) is “A (“A” indicates an IC50 ratio greater than or equal to 30 fold)”. Besides, the IC90 in test [2] (read-out: Hap1 MTAP deleted IC90, SDMA in-cell western assay, HAP1 MTAP-deleted cell line) was below 75 nM.

On to `C[C@H]1CC[C@H](c2cccc(OCCN(C)C)c2)N(C(=O)C(=O)Nc2cncc3cn[nH]c23)C1` (single isomer, unassigned) [Compound 78], for which the IC50 was above 50 nM in test [1] (setting [3]), 100 to 1000 nM in the test on MTAP-deleted cell line (setting [4]) and below 5 nM in test [2] (setting [5]). Moreover, in test [2] (setting [6]), the IC90 was below 75 nM. The “Hap1 MTAP intact/deleted ratio” value in test [2] (SDMA in-cell western) is listed as “B (“B” indicates an IC50 ratio greater than or equal to 15 fold but lower than 30 fold)”.

Regarding `C[C@H]1CC[C@H](c2ccc3cccnc3c2)N(C(=O)C(=O)Nc2cnc(N)c3cn[nH]c23)C1` [Compound 121, N-(4-amino-1H-pyrazolo[4,3-c]pyridin-7-yl)-2-((2R,5S)-5-methyl-2-(quinolin-7-yl)piperidin-1-yl)-2-oxoacetamide], the half-inhibitory concentration (IC50) is 5 to 50 nM in test [1] (setting [3]), below 100 nM with MTAP-deleted cell line (setting [4]) and below 5 nM in test [2] (setting [5]). For the same compound, the IC90 in test [2] (setting [6]) was below 75 nM. The “Hap1 MTAP intact/deleted ratio” value in test [2] (SDMA in-cell western) is given as “A (“A” indicates an IC50 ratio greater than or equal to 30 fold)”.

With `C[C@H]1CC[C@H](c2cccc(OC[C@H](C)N(C)C)c2)N(C(=O)C(=O)Nc2cnc(N)c3cn[nH]c23)C1` [Compound 164, N-(4-amino-1H-pyrazolo[4,3-c]pyridin-7-yl)-2-((2R,5S)-2-(3-((S)-2-(dimethylamino)propoxy)phenyl)-5-methylpiperidin-1-yl)-2-oxoacetamide], the half-inhibitory concentration (IC50) was 5 to 50 nM in test [1] (setting [3]), below 100 nM in the test on MTAP-deleted cell line (setting [4]) and below 5 nM in test [2] (setting [5]). Further, the IC90 in test [2] (setting [6]) is below 75 nM. For the same compound, the “Hap1 MTAP intact/deleted ratio” value in test [2] (SDMA in-cell western) is given as “C (“C” indicates an IC50 ratio of less than 15 fold)”.

In the case of `C[C@H]1CC[C@H](c2ccc3sc(CC4CCN(C)CC4)nc3c2)N(C(=O)C(=O)Nc2cncc3cn[nH]c23)C1` [Compound 61, 2-((2R,5S)-5-methyl-2-(2-((1-methylpiperidin-4-yl)methyl)benzo[d]thiazol-5-yl)piperidin-1-yl)-2-oxo-N-(1H-pyrazolo[4,3-c]pyridin-7-yl)acetamide], the IC50 in test [1] (setting [3]) was 5 to 50 nM; in the test with MTAP-deleted cell line (setting [4]) it was below 100 nM; in test [2] (setting [5]) it was below 5 nM. For the same compound, in test [2] (setting [6]), the IC90 was below 75 nM. Also, the “Hap1 MTAP intact/deleted ratio” value in test [2] (SDMA in-cell western) is “B (“B” indicates an IC50 ratio greater than or equal to 15 fold but lower than 30 fold)”.

On to `CC1=C(c2nc3cc([C@H]4CC[C@H](C)CN4C(=O)C(=O)Nc4cncc5cn[nH]c45)ccc3s2)CCN(C)C1` [Compound 165], for which the IC50 in test [1] (setting [3]) is above 50 nM; with MTAP-deleted cell line (setting [4]), below 100 nM; in test [2] (setting [5]) it was below 5 nM. In addition, the IC90 in test [2] (setting [6]) is below 75 nM. Besides, the “Hap1 MTAP intact/deleted ratio” value in test [2] (SDMA in-cell western) is “A (“A” indicates an IC50 ratio greater than or equal to 30 fold)”.

In the case of `C[C@H]1CC[C@H](c2cccc(OC[C@@H](C)N(C)C)c2)N(C(=O)C(=O)Nc2cnc(N)c3cn[nH]c23)C1` [Compound 149, N-(4-amino-1H-pyrazolo[4,3-c]pyridin-7-yl)-2-((2R,5S)-2-(3-((R)-2-(dimethylamino)propoxy)phenyl)-5-methylpiperidin-1-yl)-2-oxoacetamide], the IC50 in test [1] (setting [3]) was 5 to 50 nM; with MTAP-deleted cell line (setting [4]) it was below 100 nM; in test [2] (setting [5]) it was below 5 nM. For the same compound, in test [2] (setting [6]), the IC90 is below 75 nM. Also, the “Hap1 MTAP intact/deleted ratio” value in test [2] (SDMA in-cell western) is “C (“C” indicates an IC50 ratio of less than 15 fold)”.

Regarding `C[C@H]1CC[C@H](c2cccc3c2CCO3)N(C(=O)C(=O)Nc2cnc(N)c3cn[nH]c23)C1` (racemic) [Compound 282, N-(4-Amino-1H-pyrazolo[4,3-c]pyridin-7-yl)-2-oxo-2-[rac-(2R,5S)-2-(2,3-dihydrobenzofuran-4-yl)-5-methyl-1-piperidyl]acetamide], the figures for the IC50 (in test [1] (setting [7]); in the test with MTAP-deleted cell line (setting [4]); in test [2] (setting [8])) were 5 to 50 nM, below 100 nM and below 5 nM, respectively. Further, the IC90 in test [2] (setting [9]) was below 75 nM. The “Hap1 MTAP intact/deleted ratio” value in test [2] (SDMA in-cell western assay) is reported as “A (“A” indicates an IC50 ratio greater than or equal to 30 fold)”.

For the compound `C[C@H]1CC[C@H](c2ccc3sc(CCN(C)C)nc3c2)N(C(=O)C(=O)Nc2cncc3[nH]ncc23)C1` (single isomer, unassigned) [Compound 92, 2-(2-(2-(2-(dimethylamino)ethyl)benzo[d]thiazol-5-yl)-5-methylpiperidin-1-yl)-2-oxo-N-(1H-pyrazolo[3,4-c]pyridin-4-yl)acetamide], the IC50 is above 50 nM in test [1] (setting [3]), below 100 nM with MTAP-deleted cell line (setting [4]) and below 5 nM in test [2] (setting [5]). In test [2] (setting [6]), the IC90 is above 125 nM. For the same compound, in test [2] (SDMA in-cell western), the “Hap1 MTAP intact/deleted ratio” value is reported as “B (“B” indicates an IC50 ratio greater than or equal to 15 fold but lower than 30 fold)”.

In the case of `C[C@H]1CC[C@H](c2ccc3sc([C@H]4CCN(C)C[C@@H]4C)nc3c2)N(C(=O)C(=O)Nc2ccn3ccnc3c2)C1` (relative stereo) [Compound 48, N-imidazo[1,2-a]pyridin-7-yl-2-oxo-2-[(2R,5S)-5-methyl-2-[2-[rel-(3R,4S)-1,3-dimethyl-4-piperidyl]-1,3-benzothiazol-5-yl]-1-piperidyl]acetamide], the IC50 was above 50 nM in test [1] (setting [3]), below 100 nM with MTAP-deleted cell line (setting [4]) and below 5 nM in test [2] (setting [5]). For the same compound, the IC90 in test [2] (setting [6]) is below 75 nM. The “Hap1 MTAP intact/deleted ratio” value in test [2] (SDMA in-cell western) was “A (“A” indicates an IC50 ratio greater than or equal to 30 fold)”.

In the case of `CC1OCc2c(NC(=O)C(=O)N3C[C@@H](C)CC[C@@H]3c3ccccc3)cnc(N)c21` (single isomer, unassigned) [Compound 204], the IC50 in test [1] (setting [7]) was above 50 nM; in the test on MTAP-deleted cell line (setting [4]) it was above 1000 nM; in test [2] (setting [8]) it was above 50 nM. In addition, the 90% effect concentration (IC90) in test [2] (setting [9]) is above 125 nM. Moreover, in test [2] (SDMA in-cell western assay), the “Hap1 MTAP intact/deleted ratio” value is on record as “C (“C” indicates an IC50 ratio of less than 15 fold)”.

`CC[C@@H]1CC[C@H](CC)N(C(=O)C(=O)Nc2cnc(N)c3cn[nH]c23)C1` (racemic) [Compound 227]: the concentration for half-maximal inhibition (IC50) is 5 to 50 nM in test [1] (setting [7]), below 100 nM in the test on MTAP-deleted cell line (setting [4]) and below 5 nM in test [2] (setting [8]). The IC90 in test [2] (setting [9]) was below 75 nM. The “Hap1 MTAP intact/deleted ratio” value in test [2] (SDMA in-cell western assay) was “B (“B” indicates an IC50 ratio greater than or equal to 15 fold but lower than 30 fold)”.
